In brackets after ≈: the same amount, converted by molar mass. Square brackets hold non-standard residues; d marks the D form. Peptide text beside a SMILES is read from it. * marks the point of attachment. Pro(4R-Me) = C[C@H]1CN[C@H](C(=O)O)C1; Oleoyl = CCCCCCCC/C=C\CCCCCCCC(=O)*; hSer = N[C@@H](CCO)C(=O)O
Key:
[1] = tested on: Influenza A virus; test: Antiviral activity against Influenza A virus A/Puerto Rico/8/34(H1N1) strain infected in MDCK cells assessed as inhibition of viral infection by CPE inhibition assay; assay type: functional, organism-based
[2] = tested on: Zika virus; test: Antiviral activity against ZIKV Z16019 infected in A549 cells assessed as inhibition in viral replication at MOI of 1 incubated for 1 hr by plaque assay; assay type: functional, organism-based; conditions: Z16019, A549, 1 h
[3] = tested on: Zika virus; test: Antiviral activity against ZIKV infected in A549 cells assessed as viral replication inhibition; assay type: functional, organism-based
[4] = tested on: Influenza A virus; test: Antiviral activity against Influenza A virus H1N1 subtype infected in MDCK cells assessed as inhibition of viral replication incubated for 48 hrs by CPE inhibition assay; assay type: functional, organism-based
[5] = tested on: Influenza A virus; test: Antiviral activity against Influenza A virus H3N2 subtype infected in MDCK cells assessed as inhibition of viral replication incubated for 48 hrs by CPE inhibition assay; assay type: functional, organism-based
[6] = tested on: Human immunodeficiency virus 1; test: Antiviral activity against HIV-1 infected in SUP-T1 cells assessed as inhibition of viral replication at MOI of 1 treated for 48 hrs by luciferase assay; assay type: functional, organism-based; conditions: Human immunodeficiency virus 1, SUP-T1, 48 h
[7] = tested on: Influenza A virus; test: Antiviral activity against Influenza A virus A/Puerto Rico/8/34(H1N1) strain infected in MDCK cells assessed as inhibition of viral infection incubated for 60 mins by CPE inhibition assay; assay type: functional, organism-based; conditions: 1 h
[8] = tested on: dengue virus type 2; test: Antiviral activity against DENV2 00st-22A infected in Vero cells assessed as reduction in viral replication at MOI of 0.5 incubated for 48 hrs by focus-forming assay; assay type: functional, organism-based
[9] = tested on: dengue virus type 2; test: Antiviral activity against DENV2 16681 infected in HEK293T/17 cells assessed as reduction in viral replication at MOI of 1 to 10 incubated for 24 hrs by standard plaque assay; assay type: functional, organism-based; conditions: Dengue virus, 16681, HEK293T/17, 24 h
[10] = tested on: dengue virus type 2; test: Antiviral activity against DENV2 assessed as inhibition of viral replication by DENV RNA-dependent RNA polymerase assay; assay type: functional, organism-based
[11] = tested on: Hepatitis C virus; test: Antiviral activity against HCV J8CC; assay type: functional, organism-based, Hepacivirus hominis

## C=C1CCC[C@]2(C)[C@H]3COC(=O)[C@H]3CC[C@@]12O
[1]
  IC50: 2.96 µg/mL

## CCCCCCCC/C=C\CCCCCCCC(=O)N[C@H](C(=O)N1C[C@H](C)C[C@H]1C(=O)N[C@H](C(=O)N[C@@H](CCOC(C)=O)C(=O)N[C@@H](C)C=O)C(C)C)[C@@H](C)O (Oleoyl-T[Pro(4R-Me)]V[hSer](Ac)A-aldehyde)
[2]
  EC50: 5 µM
[3]
  IC50: 0.15 µM

## CC[C@H]1O[C@@H]2O[C@H](/C=C/C=C/C=C/c3oc(=O)cc(OC/C=C(\C)C(=O)OC)c3C)[C@H](O)[C@]2(C)[C@@]1(C)O
[4]
  EC50: 3.5 µM
[5]
  EC50: 6.2 µM

## COc1ccc2oc3cc(C)c(O)c(CO)c3c(=O)c2c1OC
[1]
  IC50: 2.17 µM

## CC[C@H](C)[C@@H](O)C(=O)[C@H]1C2=COC(C)=CC2=CC(=O)[C@@]1(C)O
[6]
  IC50: 0.5 µM

## C[C@]1(O)CC2=C(C(=O)c3c(O)cc(O)cc3C2=O)[C@H](O)[C@H]1O
[7]
  IC50: 2.59 µg/mL (≈ 8.46 µM)

## C[C@H]1CCC/C=C/[C@@H]2C[C@H](O)C[C@H]2[C@H](O)/C=C/C(=O)O1 [BREFELDIN A]
[8]
  IC50: 0.0546 µM

## COc1cc(O)c2c(c1)C(=O)C1=C(C[C@@H](O)[C@@](C)(O)C1)C2=O [ALTERSOLANOL B]
[7]
  IC50: 7.82 µg/mL (≈ 25.7 µM)

## C=C(C)C#CC1=C[C@@H]2O[C@@H](C(C)(C)O)C[C@]23O[C@@H]3[C@H]1O
[6]
  IC50: 16.1 µM

## CC(C)[C@@H]1NC(=O)[C@@H](C[C@@]2(O)c3ccccc3N3C(=O)C(C)(C)N[C@@H]32)n2c1nc1ccccc1c2=O
[9]
  EC50: 4.73 µM

## COc1cc(O)c2c(c1)C(=O)C1=C(C2=O)[C@H](O)[C@@H](O)[C@@](C)(O)C1
[7]
  IC50: 8.35 µg/mL (≈ 26.1 µM)

## C=C(CC[C@@H](C)[C@H]1CC=C2C3=C(CC[C@@]21C)[C@@]1(C)CC[C@H](O)C[C@@H]1CC3=O)C(C)C
[6]
  IC50: 3.5 µM

## COc1cccc2oc3cc(C)c(O)c(CO)c3c(=O)c12
[1]
  IC50: 4.7 µM

## COC(=O)/C(C)=C/COc1cc(=O)oc(/C=C/C=C/C=C/[C@H]2O[C@H]3O[C@H](C)[C@](C)(O)[C@@]3(C)[C@H]2O)c1C
[5]
  EC50: 8.9 µM

## C/C=C(\C)[C@@H]1C(C)=C[C@@H]2CC(=O)C[C@H](C)[C@H]2[C@@H]1/C=C/C=C/C(=O)O
[10]
  IC50: 11.8 µM

## CC1(C)C(=O)N2c3ccccc3[C@@]3(C[C@H]4n5c(nc6ccccc6c5=O)C(=O)C(C)(C)[C@@]4(O)O3)[C@@H]2N1S(C)(=O)=O
[11]
  EC50: 110 µM

## CC[C@H](C)C(=O)[C@H]1C(=O)O[C@@]2(C)C(=O)C=C3C=C(C)OC=C3[C@H]12 [CHERMESINONE B]
[7]
  IC50: 0.8 µg/mL (≈ 2.53 µM)

## O=C(C(=O)c1c[nH]c2ccccc12)c1c[nH]c2ccccc12
[2]
  EC50: 4.2 µM

## CC(=O)OC/C=C(\C)[C@@H]1C(C)=C[C@@H]2CC[C@H](O)[C@H](C)[C@H]2[C@@H]1/C=C/C=C/C(=O)O
[10]
  IC50: 13.6 µM

## CC[C@@H]1N[C@@H]2N(C1=O)c1ccccc1[C@@]2(O)C[C@@H]1C(=O)NC(=C(C)C)c2nc3ccccc3c(=O)n21
[11]
  EC50: 129 µM

Reference: ChEMBL document CHEMBL5230150, “Antiviral fungal metabolites and some insights into their contribution to the current COVID-19 pandemic” (Bioorg Med Chem, 2021)
